In patent US8802597B2, “Herbicidal pyrimidines” (E I du Pont de Nemours and Company, priority 2003, dated 2014):

Legend:
Format in all cases: in vivo
wild oat (Avena fatua) = assay: Test B postemergence; settings: for Oat, Wild plant response rating: scale 0 to 100 (0 no effect, 100 complete control)
Outline: (§1)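 Test chemicals in a non-phytotoxic solvent mixture with surfactant were applied preemergence to planted seeds and postemergence to plants 2 to 18 cm tall (1- to 4-leaf stage). After 13 to 15 days in a greenhouse, injury was visually rated against untreated controls on a 0 to 100 scale.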

[1] = system: blackgrass (Alopecurus myosuroides); assay: Test B postemergence; settings: for Blackgrass plant response rating: scale 0 to 100 (0 no effect, 100 complete control)
Outline: as §1

corn (Zea mays) = assay: Test B pre/postemergence
Outline: as §1

[2] = system: velvetleaf (Abutilon theophrasti); assay: Test B pre/postemergence
Outline: as §1

[3] = system: wheat (Triticum aestivum); assay: Test B pre/postemergence
Outline: as §1

[4] = system: morningglory (Ipomoea coccinea); assay: Test B pre/postemergence
Outline: as §1

[5] = system: giant foxtail (Setaria faberii); assay: Test B pre/postemergence
Outline: as §1

[6] = system: crabgrass (Digitaria sanguinalis); assay: Test B pre/postemergence
Outline: as §1

[7] = system: Surinam grass (Brachiaria decumbens); assay: Test B pre/postemergence
Outline: as §1

[8] = system: lambsquarters (Chenopodium album); assay: Test B pre/postemergence; settings: for Lambsquarters plant response rating: scale 0 to 100 (0 no effect, 100 complete control)
Outline: as §1

[9] = system: pigweed (Amaranthus retroflexus); assay: Test B pre/postemergence
Outline: as §1

[10] = system: barnyardgrass (Echinochloa crus-galli); assay: Test B pre/postemergence
Outline: as §1

[11] = system: cocklebur (Xanthium strumarium); assay: Test B pre/postemergence
Outline: as §1

[12] = system: umbrella sedge (Cyperus difformis); assay: Test B flooded paddy test; settings: Flood, scale 0 to 100
Outline: (§2)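 Plants were grown to the 2-leaf stage before treatment, then kept in a greenhouse for 13 to 15 days. Injury was rated visually against untreated controls on a 0 to 100 scale, where 0 is no effect and 100 is complete control.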

rice (Oryza sativa) = assay: Test B flooded paddy test; settings: Flood, scale 0 to 100
Outline: as §2

[13] = system: duck salad (Heteranthera limosa); assay: Test B flooded paddy test; settings: Flood, scale 0 to 100
Outline: as §2

[14] = system: barnyardgrass (Echinochloa crus-galli); assay: Test B flooded paddy test; settings: Flood
Outline: as §2

[15] = Postemergence, 125 g ai/ha, scale 0 to 100 (0 no effect, 100 complete control)
[16] = Postemergence, 500 g ai/ha, scale 0 to 100
[17] = Preemergence, 125 g ai/ha, scale 0 to 100 (0 no effect, 100 complete control)
[18] = Preemergence, 500 g ai/ha, scale 0 to 100 (0 no effect, 100 complete control)
[19] = Postemergence, 62 g ai/ha, scale 0 to 100 (0 no effect, 100 complete control)
[20] = Preemergence, 62 g ai/ha, scale 0 to 100, 0 no effect, 100 complete control

In the case of `COC(=O)c1nc(-c2ccc(C(F)(F)F)cc2)nc(N)c1Cl` [Compound 44], the “Oat, Wild plant response rating” value (wild oat (Avena fatua); 125 g ai/ha) was 0, the “Plant response rating, Oat, Wild” value (wild oat (Avena fatua); 500 g ai/ha, scale 0 to 100) was 0 and the “Blackgrass plant response rating” value ([1]; 125 g ai/ha) was 30. The “Plant response rating, Blackgrass” value ([1]; 500 g ai/ha, scale 0 to 100) was 40, the “Corn plant response rating” value (corn (Zea mays); [15]) was 30 and the “Plant response rating, Corn” value (corn (Zea mays); [16]) was 70. For the same molecule, the “Plant response rating, Corn” value (corn (Zea mays); [17]) was 0, the “Corn plant response rating” value (corn (Zea mays); [18]) was 0 and the “Velvetleaf plant response rating” value [2, 15] was 80. The “Plant response rating, Velvetleaf” value [2, 16] was 90, the “Plant response rating, Velvetleaf” value [2, 17] was 30 and the “Velvetleaf plant response rating” value [2, 18] was 80. The “Wheat plant response rating” value [3, 15] was 0, the “Plant response rating, Wheat” value [3, 16] was 30 and the “Plant response rating, Wheat” value [3, 17] was 30. For the same molecule, the “Plant response rating, Wheat” value [3, 18] was 60, the “Morningglory plant response rating” value [4, 15] was 80 and the “Plant response rating, Morningglory” value [4, 16] was 100. The “Plant response rating, Morningglory” value [4, 17] was 10, the “Morningglory plant response rating” value [4, 18] was 40 and the “Plant response rating, Foxtail, Giant” value [5, 17] was 20. For the same molecule, the “Foxtail, Giant plant response rating” value [5, 18] was 40, the “Crabgrass plant response rating” value [6, 15] was 70 and the “Plant response rating, Crabgrass” value [6, 16] was 80. The “Plant response rating, Crabgrass” value [6, 17] was 40, the “Crabgrass plant response rating” value [6, 18] was 80 and the “Plant response rating, Surinam Grass” value [7, 16] was 50. For the same molecule, the “Plant response rating, Surinam Grass” value [7, 17] was 40, the “Surinam Grass plant response rating” value [7, 18] was 60 and the “Lambsquarters plant response rating” value ([8]; Postemergence, 125 g ai/ha) was 90. The “Plant response rating, Lambsquarters” value [8, 16] was 90, the “Lambsquarters plant response rating” value ([8]; Preemergence, 500 g ai/ha) was 60 and the “Pigweed plant response rating” value [9, 15] was 80. The “Plant response rating, Pigweed” value [9, 16] was 90, the “Plant response rating, Pigweed” value [9, 17] was 70 and the “Pigweed plant response rating” value [9, 18] was 80. For the same molecule, the “Barnyardgrass plant response rating” value [10, 15] was 40, the “Plant response rating, Barnyardgrass” value [10, 16] was 50 and the “Plant response rating, Barnyardgrass” value [10, 17] was 0. The “Barnyardgrass plant response rating” value [10, 18] was 10, the “Cocklebur plant response rating” value [11, 15] was 90 and the “Plant response rating, Cocklebur” value [11, 16] was 100. For the same molecule, the “Plant response rating, Cocklebur” value [11, 17] was 10, the “Cocklebur plant response rating” value [11, 18] was 80 and the “Plant response rating, Sedge, Umbrella” value ([12]; 1000 g ai/ha) was 80. The “Plant response rating, Rice” value (rice (Oryza sativa); 1000 g ai/ha) was 0, the “Plant response rating, Ducksalad” value ([13]; 1000 g ai/ha) was 90 and the “Plant response rating, Barnyardgrass” value ([14]; 1000 g ai/ha, scale 0 (no effect) to 100 (complete control)) was 0.
`Nc1nc(-c2ccc(Cl)cc2)nc(C(=O)O)c1Br` [Compound 88] was tested, and the “Oat, Wild plant response rating” value (wild oat (Avena fatua); 62 g ai/ha) was 40, the “Oat, Wild plant response rating” value (wild oat (Avena fatua); 125 g ai/ha) was 50 and the “Blackgrass plant response rating” value ([1]; 62 g ai/ha) was 40. The “Blackgrass plant response rating” value ([1]; 125 g ai/ha) was 60, the “Corn plant response rating” value (corn (Zea mays); [19]) was 70 and the “Corn plant response rating” value (corn (Zea mays); [15]) was 80. The “Plant response rating, Corn” value (corn (Zea mays); [20]) was 0, the “Plant response rating, Corn” value (corn (Zea mays); [17]) was 10 and the “Velvetleaf plant response rating” value [2, 19] was 90. The “Velvetleaf plant response rating” value [2, 15] was 100, the “Plant response rating, Velvetleaf” value [2, 20] was 70 and the “Plant response rating, Velvetleaf” value [2, 17] was 90. For the same molecule, the “Wheat plant response rating” value [3, 19] was 50, the “Wheat plant response rating” value [3, 15] was 60 and the “Plant response rating, Wheat” value [3, 20] was 50. The “Plant response rating, Wheat” value [3, 17] was 70, the “Morningglory plant response rating” value [4, 19] was 60 and the “Morningglory plant response rating” value [4, 15] was 90. The “Plant response rating, Morningglory” value [4, 20] was 0, the “Plant response rating, Morningglory” value [4, 17] was 10 and the “Foxtail, Giant plant response rating” value [5, 19] was 60. The “Foxtail, Giant plant response rating” value [5, 15] was 70, the “Plant response rating, Foxtail, Giant” value [5, 20] was 10 and the “Plant response rating, Foxtail, Giant” value [5, 17] was 30. The “Crabgrass plant response rating” value [6, 19] was 70, the “Crabgrass plant response rating” value [6, 15] was 80 and the “Plant response rating, Crabgrass” value [6, 20] was 50. The “Plant response rating, Crabgrass” value [6, 17] was 70, the “Surinam Grass plant response rating” value [7, 19] was 80 and the “Surinam Grass plant response rating” value [7, 15] was 80. For the same molecule, the “Plant response rating, Surinam Grass” value [7, 20] was 20, the “Plant response rating, Surinam Grass” value [7, 17] was 50 and the “Lambsquarters plant response rating” value ([8]; Postemergence, 62 g ai/ha) was 100. For the same molecule, the “Lambsquarters plant response rating” value ([8]; Postemergence, 125 g ai/ha) was 100, the “Pigweed plant response rating” value [9, 19] was 100 and the “Pigweed plant response rating” value [9, 15] was 100. The “Barnyardgrass plant response rating” value [10, 19] was 90, the “Barnyardgrass plant response rating” value [10, 15] was 90 and the “Cocklebur plant response rating” value [11, 19] was 100. For the same molecule, the “Cocklebur plant response rating” value [11, 15] was 100, the “Plant response rating, Cocklebur” value [11, 20] was 60 and the “Plant response rating, Cocklebur” value [11, 17] was 90. For the same molecule, the “Plant response rating, Sedge, Umbrella” value ([12]; 125 g ai/ha) was 60, the “Plant response rating, Sedge, Umbrella” value ([12]; 500 g ai/ha) was 90 and the “Plant response rating, Rice” value (rice (Oryza sativa); 125 g ai/ha) was 0. For the same molecule, the “Plant response rating, Rice” value (rice (Oryza sativa); 500 g ai/ha) was 0, the “Plant response rating, Ducksalad” value ([13]; 125 g ai/ha) was 90 and the “Plant response rating, Ducksalad” value ([13]; 500 g ai/ha) was 90. For the same molecule, the “Plant response rating, Barnyardgrass” value ([14]; 125 g ai/ha, scale 0 to 100) was 0 and the “Plant response rating, Barnyardgrass” value ([14]; 500 g ai/ha, scale 0 to 100) was 0.
